# According to PubChem BioAssay (NCI):
# “And” between values parts separate entries of the source, which are not always exact repeats. Equal values may be shown once.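 Five concentrations, 48 hours, 96-well plates. Abbreviation: GI50, concentration required for 50% inhibition of growth. The concentration for full growth arrest is given as TGI.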
# Experiments:
# Experiment in all cases: DTP human tumour cell line panel, 48 h
# COLO 205 colon = system: COLO 205 colon
# HCC-2998 colon = system: HCC-2998 colon
# K-562 leukemia = system: K-562 leukemia
# NCI-H460 lung = system: NCI-H460 lung
# OVCAR-3 ovarian = system: OVCAR-3 ovarian
# PC-3 prostate = system: PC-3 prostate
# SK-MEL-28 melanoma = system: SK-MEL-28 melanoma
# SR leukemia = system: SR leukemia
# UACC-62 melanoma = system: UACC-62 melanoma
# UO-31 renal = system: UO-31 renal
Structure (SMILES),TGI (COLO 205 colon),TGI (HCC-2998 colon) [µM],TGI (K-562 leukemia),TGI (NCI-H460 lung),TGI (OVCAR-3 ovarian),TGI (PC-3 prostate),TGI (SK-MEL-28 melanoma) [µM],TGI (SR leukemia) [µM],TGI (UACC-62 melanoma),TGI (UO-31 renal) [µM],GI50 (COLO 205 colon) [µM],GI50 (HCC-2998 colon) [µM],GI50 (K-562 leukemia) [µM],GI50 (NCI-H460 lung) [µM],GI50 (OVCAR-3 ovarian) [µM],GI50 (PC-3 prostate) [µM],GI50 (SK-MEL-28 melanoma) [µM],GI50 (UACC-62 melanoma) [µM],GI50 (UO-31 renal) [µM]
Cc1ccc2nc(Nc3ccccc3C)c(Nc3ccccc3C)nc2c1,30.6 µM,61.3,> 57.4 µM,45 µM,52.3 µM,> 100 µM,> 100,> 100,> 90.7 µM,60.8,,,,,,,,,
N#Cc1ccnc(C(=O)N2CCCC2C(=O)O)c1 (stereo not given),> 100 µM,> 100,> 100 µM,> 100 µM,> 100 µM,> 100 µM,> 100,> 100,> 100 µM,> 100,,,,,,,,,
Fc1cccc(F)c1C1SCc2nc3cc(Cl)ccc3n21 (stereo not given),36.6 µM,42.6,> 100 µM,> 100 µM,> 100 µM,> 100 µM,> 100,65.7,> 100 µM,> 47.2,,,,,,,,,
O=C(O[C@@H](/C=C/c1ccccc1)P1(=O)N(Cc2ccccc2)[C@@H]2CCCC[C@H]2N1Cc1ccccc1)c1ccccc1,4.55 µM,> 100,> 100 µM,> 100 µM,> 100 µM,> 100 µM,> 100,> 100,> 100 µM,27.4,,,,,,,,,
O=C1c2cc3c(cc2-c2c1c1cc(F)c(F)cc1c(=O)n2C[C@H](O)CO)OCO3,1.2 µM,11.2,> 100 µM,0.141 µM,0.753 µM,> 100 µM,7.15,> 100,0.0678 µM,0.337,0.103,0.14,0.069,0.031,0.224,0.127,0.28,0.0153,0.0698
O=C(O)C12C3C4(C(=O)O)C1C1(C(=O)O)C2C3(C(=O)O)C41 (stereo not given),> 100 µM,> 100,> 100 µM,> 100 µM,> 100 µM,> 100 µM,> 100,> 100,> 100 µM,> 100,,,,,,,,,
Cc1nc2ccccc2n1Cc1ccc(NC(=S)Nc2ccccc2)cc1,> 100 µM,> 100,> 100 µM,> 100 µM,> 100 µM,> 100 µM,> 100,> 100,> 100 µM,> 100,,,,,,,,,
CO[C@H](C)[C@](O)(C(=O)OCC1=CCN2CC[C@@H](O)[C@H]12)C(C)C,> 100 µM,> 100,> 100 µM,> 100 µM,> 100 µM,> 100 µM,> 100,> 100,> 100 µM,> 100,,,,,,,,,
OC(CCN1CCN(CCOC(c2ccc(F)cc2)c2ccc(F)cc2)CC1)c1ccc(Br)cc1 (stereo not given),3.84 µM,3.53,7 µM,7.37 µM,9.66 µM,17.8 µM,7.9,4.13,12.7 µM,4.67,,,,,,,,,
Cn1c2ccccc2c2c3c(=O)[nH][nH]c(=O)c3c3c4ccccc4n(C)c3c21,> 100 µM,> 100,> 100 µM,> 100 µM,> 100 µM,> 100 µM,> 100,0.252,> 100 µM,> 100,,,,,,,,,
Brc1ccc(/C(N=N/C(=N\Sc2ccccc2)c2ccc(Br)cc2)=N/Sc2ccccc2)cc1,> 100 µM,> 100,> 100 µM,> 100 µM,> 100 µM,> 100 µM,> 100,> 100,> 100 µM,> 100,,,,,,,,,
CCC(C)C(NC(=O)C(CCCC[N+](=N)N)NC(=O)C(CCCC[N+](=N)N)NC(=O)c1ccc(OC)cc1)C(=O)NC(CCCC[N+](=N)N)C(=O)N1CCCC1C(=O)NC(CCCCN)C(=O)NC(CC(C)C)C(N)=O (stereo not given),> 100 µM,> 100,> 100 µM,> 100 µM,> 100 µM,> 100 µM,> 100,> 100,> 100 µM,> 100,,,,,,,,,
C=C1C[C@@H]2CC[C@@]34CC5O[C@H]6C(O[C@H]7CC[C@H](CC(=O)O[C@@H]8[C@@H](C)[C@@H]9O[C@@H]%10C[C@]%11(C[C@@H]%12O[C@]%13(C[C@H](C)[C@@H]%14O[C@@H]%15CC(C(COC(C)=O)OC(C)=O)O[C@@H]%15C[C@@H]%14O%13)C[C@H](C)[C@@H]%12O%11)O[C@@H]%10C[C@@H]9O[C@H]8CC8O[C@@H](CC[C@@H]1O2)C[C@@H](C)C8(O)CO)O[C@@H]7[C@@H]6O3)[C@H]5O4 (stereo not given in full),> 1 µM,> 0.225,> 1 µM,> 0.955 µM,> 1 µM,> 1 µM,> 1,> 1,> 1 µM,> 1,,,,,,,,,
O=C1CCC(CCc2nc3ccccc3[nH]2)(c2ccccc2)C(=O)N1 (stereo not given),> 100 µM,> 100,> 100 µM,> 100 µM,> 100 µM,> 100 µM,> 100,> 100,> 100 µM,52.1,,,,,,,,,
C=CCN(c1cc(OC)c2[nH]c(C(=O)O)c(C)c2c1[N+](=O)[O-])S(C)(=O)=O,> 100 µM,> 100,> 100 µM,> 100 µM,> 100 µM,> 100 µM,> 100,> 100,> 100 µM,> 100,,,,,,,,,
O=C(CCl)Nc1ccc(C(=O)N/N=C/c2ccc(Cl)cc2)cc1,4.05 µM and 1.44 µM,22.5,4.04 µM and 7.46 µM,3.84 µM and 4.23 µM,3.42 µM and 3.6 µM,3.53 µM and 21.9 µM,16.8,3.93,3.2 µM and 8.78 µM,10.6,2.01,3.85,2,,,10.1,3.59,1.71,
CCC1(c2ccc(OC)c(OC)c2)CCN2C(=O)C(O)CC21 (stereo not given),> 100 µM,> 100,> 100 µM,> 100 µM,> 100 µM,> 100 µM,> 100,> 100,> 100 µM,> 100,,,,,,,,,
CC1=CC(O)CC(C)(C)C1/C=C/C(C)=C/C=C/C(C)=C/C=C/C=C(C)/C=C/C=C(C)/C=C/C1=C(C)CC(O)CC1(C)C (stereo not given),38 µM,> 100,> 100 µM,> 100 µM,32.8 µM,62.6 µM,31.4,> 100,29.8 µM,> 100,,,,,,,,,
CC(C)(C)C#CI1OC(=O)c2ccccc21,4.65 µM,23.6,11.7 µM,11.9 µM,8.84 µM,19.5 µM,17.8,3.74,13.8 µM,14.6,,,,,,,,,
O=C1CCCC2=C1CC1=C(CCCC1=O)N2c1ccc(-c2ccccc2)cc1,> 100 µM,> 100,> 100 µM,> 100 µM,> 100 µM,> 100 µM,> 100,> 100,> 100 µM,> 100,,,,,,,,,
Brc1ccc2[nH]cc(-c3csc(-c4c[nH]c5ccc(Br)cc45)n3)c2c1,3.42 µM,3.26,3.43 µM,3.43 µM,6.95 µM,4.44 µM,5.31,2.99,4.09 µM,7.27,,,,,,,,,
CCOC(=O)C(NC(=O)CC)(Nc1ccccc1F)C(F)(F)F (stereo not given),> 100 µM,> 100,> 100 µM,> 100 µM,> 100 µM,> 100 µM,> 100,> 100,> 100 µM,> 100,,,,,,,,,
